Test results published in ChEMBL document CHEMBL5726153, “Benzimidazole derivatives as kinase inhibitors” (2019).
Where “and” joins values, the source holds several entries; their conditions need not be identical. Identical values can stand only once.

Molecular target: Voltage-gated inwardly rectifying potassium channel KCNH2 (Homo sapiens, UniProt Q12809)
Assay: Determination of a Possible Activity on hERG: The hERG (human ether-A-go-go-related gene) channel corresponds to an important anti-target for potential new drugs since its inhibition may lead to sudden death. In order to establish whether the compounds of the present invention act on hERG, the following experiment was carried out.The in vitro effects of the compounds indicated in Table 5 on the …
Type: cell-based

Voltage-gated inwardly rectifying potassium channel KCNH2, sequence (Q12809 whole entry): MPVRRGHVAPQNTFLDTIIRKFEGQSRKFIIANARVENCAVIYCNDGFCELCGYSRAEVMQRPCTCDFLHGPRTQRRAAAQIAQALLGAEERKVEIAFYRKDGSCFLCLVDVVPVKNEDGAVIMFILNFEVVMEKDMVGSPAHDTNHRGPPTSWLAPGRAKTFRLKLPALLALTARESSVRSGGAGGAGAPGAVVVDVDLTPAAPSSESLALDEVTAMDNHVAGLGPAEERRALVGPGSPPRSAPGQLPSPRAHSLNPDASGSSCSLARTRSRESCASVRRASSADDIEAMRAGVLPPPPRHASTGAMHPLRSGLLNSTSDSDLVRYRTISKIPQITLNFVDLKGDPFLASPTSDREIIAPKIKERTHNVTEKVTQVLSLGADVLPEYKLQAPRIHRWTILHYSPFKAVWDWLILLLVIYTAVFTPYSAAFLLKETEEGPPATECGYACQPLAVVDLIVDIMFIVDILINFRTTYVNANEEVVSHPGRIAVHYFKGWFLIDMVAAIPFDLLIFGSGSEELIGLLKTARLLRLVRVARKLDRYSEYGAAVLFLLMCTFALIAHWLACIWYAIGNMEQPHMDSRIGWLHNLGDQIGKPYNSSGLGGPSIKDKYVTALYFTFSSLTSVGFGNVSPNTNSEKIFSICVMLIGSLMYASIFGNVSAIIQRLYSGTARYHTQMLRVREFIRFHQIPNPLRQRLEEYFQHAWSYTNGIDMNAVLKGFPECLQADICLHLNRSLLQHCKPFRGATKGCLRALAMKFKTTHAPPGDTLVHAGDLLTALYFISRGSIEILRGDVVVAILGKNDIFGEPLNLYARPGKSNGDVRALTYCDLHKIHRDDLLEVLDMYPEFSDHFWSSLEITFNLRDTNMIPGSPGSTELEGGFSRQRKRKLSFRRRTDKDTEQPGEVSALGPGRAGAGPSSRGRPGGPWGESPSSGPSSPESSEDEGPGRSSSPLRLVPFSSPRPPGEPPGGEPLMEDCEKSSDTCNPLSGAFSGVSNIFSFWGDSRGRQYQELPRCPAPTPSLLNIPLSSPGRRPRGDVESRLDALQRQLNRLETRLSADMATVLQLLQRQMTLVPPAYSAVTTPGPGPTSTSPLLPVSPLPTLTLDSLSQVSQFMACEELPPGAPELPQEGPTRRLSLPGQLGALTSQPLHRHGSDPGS

SMILES	IC50
CCn1c(N2CCNCC2)nc2c([N+](=O)[O-])c(Br)c(Br)cc21	16.9 µM
CCn1c(N2CCNC(=O)C2)nc2c([N+](=O)[O-])c(Br)c(Br)cc21	1.78 µM and 11.9 µM
